{"source": "patent US10188633B2", "about": "“Identification of small molecules that facilitate therapeutic exon skipping” (The Regents of the University of California, priority 2011, dated 2019)", "key": {"[1]": {"conditions": "cited from earlier work"}, "DMD exon 31": {"tested_on": "DMD exon 31", "conditions": "cited from earlier work"}, "[2]": {"tested_on": "human DMD exon 50 GFP based reporter", "experiment": "BioMol high throughput screen in Ex50-GFP reporter C2C12 myoblasts, with or without AON6", "format": "cell-based, mouse", "conditions": "With AON6 screen, compound 10 uM", "text": "Small molecule libraries were screened for exon skipping promoting activity in C2C12 myoblasts expressing a human DMD exon 50 GFP based reporter. […] In the reporter cells, successful skipping of DMD exon 50 creates in-frame GFP expression. Number of cells that were fluorescing was quantified using a high content cell imager in 384 well plate format. Fluorescence was normalized by subtracting the average fluorescence value of the carrier (DMSO) controls. Fluorescence readouts are plotted for the BioMol library screen both with (+AO) and without (−AO) from Source Plate 1 (containing the Orphan Ligand, Ion Channel, Enzyme Inhibitor, and Endocannabanoid libraries, n=300). Each point for the DMSO controls, all compounds, and the Top 5% from Source Plate 1 (n=15) represents the average normalized fluorescence of 6 replicates in the −AO screen and 3 replicates in the +AO screen. […] Individual points for dantrolene are plotted with the bold horizontal line indicating the median. The short horizontal lines interspersed among the data points indicate 1, 2, and 3 standard deviations away from the DMSO treatment mean fluorescence.\nIn contrast to prior screens aimed at identifying small molecules which impact exon skipping, our screen is unique at least because it relies on robust quantitation of a skipping reporter in the context of a muscle lineage cell in the presence and absence of suboptimal AO. These screens were performed using a mouse muscle cell line (C2C12) expressing a human DMD exon 50 GFP based reporter selected to minimize experimental variation and sensitivity in the context of an automated and quantitative fluorescent scanning system.\nAO was added prior to small molecule incubation in an effort to identify molecules that facilitate AO skipping rather than AO delivery. The fluorescence induced by each compound was normalized to a vehicle controls per plate to correct for plate to plate variability. Fluorescence was averaged across replicate plates (n=6 without AO screen, n=3 with AO screen). Compounds were rank ordered based on average intensity of fluorescence and difference between the without AO and with AO screen (FIG. 1 and Table 2).\n(§1) A stable clone was generated from C2C12 cells transfected with a human exon 50 DMD GFP reporter (ex50GFP) that has been previously described. Ex50GFP reporter myoblasts were seeded into uncoated 384 well plates and were incubated for 4 hours either with or without 300 nM of 2′-O-methyl phosphorothioate AON6 [5′[…] 3′ (SEQ ID NO:1)] targeting the human exon 50 splice donor site. Cells were transfected with AON6 using the FUGENE (Roche) transfection reagent per manufacturer's instructions. Following AON6 incubation, each component of the BioMol library (n=503) was screened at 10 uM concentration with a final concentration of the DMSO carrier being 1%. Forty-eight hours later fluorescence was measured using the MicroXpress high content imager and analyzed using MetaXpress. Immediately preceding imaging, DNA was stained with Hoescht for 30 min. The BioMol screen without AO (−AO) was performed in 6 replicates, and the with AO (+AO) screen was performed in 3 replicates. For the screen analysis raw fluorescence values were normalized to carrier controls present on each plate by subtracting the values. Negative fluorescence values were set to 0. The data from each compound were averaged from all replicates. For secondary screening by 12 or 16 point dose response, Ex50GFP myoblasts or C2C12 cells without the reporter were seeded on uncoated 384 well plates. A sub-optimal dose of AON6 targeting DMD exon 50 was added for 4 hours."}, "[3]": {"tested_on": "human DMD exon 50 GFP based reporter", "experiment": "Secondary screening, 12 or 16 point titrations on the DMD exon 50 reporter cell line with or without AON6", "format": "cell-based, mouse", "experimental": "12 or 16 point titrations of compounds were added to the Ex50-GFP and C2C12 myoblasts either with or without AON6.\nas §1, with “hours. Following the 4 hour incubation, a compound dilution was added (beginning at 100 uM with 1:1 dilutions) for either 12 or 16 points. After a 48 hour incubation with compounds, DNA was stained with Hoescht, and fluorescence determined using the high content imager and analyzed with MetaXpress.” for “hours.”"}, "[4]": {"tested_on": "Ca2+-ATPase of sarcoplasmic reticulum", "conditions": "at 0.5-2 μM ATP; cited from earlier work"}, "[5]": {"conditions": "48 h, normalized to DMSO carrier controls"}}, "data": [{"molecule": "O=C1CN(/N=C/c2ncc(-c3ccc(Br)cc3)o2)C(=O)N1", "note": "[azumolene]", "values": [{"measurement": "water solubility relative to dantrolene", "setting": "[1]", "value": "more water soluble than dantrolene"}]}, {"molecule": "CCN1/C(=C/C(C)=O)Sc2ccc(OC)cc21", "note": "[TG003]", "values": [{"measurement": "mutant exon 31 skipping", "setting": "DMD exon 31", "value": "increased mutant exon 31 skipping"}]}, {"molecule": "CYCLOPIAZONIC ACID", "values": [{"measurement": "Fluorescence Plate 1", "setting": "[2]; 48 h, fluorescence normalized by subtracting DMSO carrier controls", "value": 29.57}, {"measurement": "Fluorescence Plate 2", "setting": "[2]; [5]", "value": 33.40}, {"measurement": "Fluorescence Plate 3", "setting": "[2]; [5]", "value": 17.24}, {"measurement": "Average Fluorescence (n = 3)", "setting": "[2]; average of 3 replicate plates", "value": 26.74}, {"measurement": "increase in fluorescence in the Ex50-GFP+AO compared to the reporter line without AO", "setting": "[3]; 12 or 16 point titrations from 100 uM, positivity criterion (FIG. 5 legend: >10%)", "value": 10, "unit": "%"}, {"measurement": "dose response in Ex50-GFP reporter", "setting": "[3]; 12 or 16 point titrations with AON6", "value": "evidence of a dose response"}, {"measurement": "amount completely inhibiting the enzyme", "setting": "[4]", "value": "Induces the release of intracellular stored Ca2+, without increasing IP3 levels, via inhibition of endoplasmic reticulum Ca2+− ATPase. It is a highly specific inhibitor of the Ca2+− ATPase of sarcoplasmic reticulum, completely inhibiting the enzyme at 6-8 nmol/mg protein (at 0.5-2 μM ATP)."}]}]}
